Data: US20240018125A1, “CYCLIC ISOTHIOUREA DERIVATIVES AS CXCR4 MODULATORS” (ERMIUM THERAPEUTICS, priority 2020, published 2024)
Counter-ions that a name gives are not always drawn.

Legend:
[1] = system: irrelevant G-protein coupled receptor (GPCR); assay: G.Validation fluorescence assay on irrelevant GPCR control; format: biochemical; conditions: SDF1α 15 μM, AMD3100 100 μM, Example 60 150 μM; SB3L1
[2] = target: T1, Recombinant CXCR4 receptor (Homo sapiens, UniProt P61073); assay: G.Validation fluorescence assay of CXCR4 receptor conformational changes in lipidic micelles SB2L4 and SB3L1; format: biochemical; conditions: SB2L4 and SB3L1, 40 min
T1 construct: host or cells: HEK-293 T cells
Excerpt: G.Validation® assay is […] biotech proprietary fluorescence based assay that assesses conformational changes of a receptor upon activation/inactivation. Recombinant CXCR4 receptor is produced and purified from HEK-293 T cells using […] proprietary mixes. Receptor is then reconstituted in detergent buffers containing lipids mimicking the lipidic composition of dendritic cells (DC) and macrophages (SB2L4 and SB3L1). Thereafter, the receptor is labelled with a non-modifying probe allowing the detection of the activation state and conformational change of the receptor upon addition of a ligand. Indeed, the probe emission spectra maximum wavelength (Amax) shifts according to activation/inactivation of the receptor. Thus, kinetic of activation/inactivation of the receptor can be followed by monitoring Amax shift after addition of a ligand over time. Emission spectra were registered for 40 minutes after addition of each ligand. […] Activation/inactivation kinetics were also followed using an exemplary compound of formula (I), i.e.

Male C57BL/6 Rj mice = assay: In vivo evaluation of CXCR4 antagonistic activity by mobilisation of blood cells; design: species or system mouse; conditions: 20 mg/kg single i.p., 2:30 h after injection; shown also for neutrophils, monocytes, lymphocytes, eosinophils
Procedure: Male C57BL/6 Rj mice (7 weeks old) were obtained from Janvier (Le Genest-Saint-Isle, France). Mice were treated by a single intraperitoneal (i.p.) administration at timepoint 0 h. The experimental groups (n=10) were defined as follows: • Mice of group 1 were treated with vehicle only (0.9% NaCl aqueous solution) • Mice of group 2 were treated with AMD3100 (CXCR4 antagonist, Sigma-Aldrich, St Louis, USA) at 20 mg/kg (volume of 10 mL/kg) in 0.9% NaCl aqueous solution • Mice of group 3 were treated with an exemplary compound of formula (I), i.e. Example 60, at 30 mg/kg (volume of 10 mL/kg) in 0.9% NaCl aqueous solution
After 2:30 h, whole blood (at least 200 μl, max 1 mL) was collected in EDTA tubes before sacrifice by an intracardiac puncture under isoflurane anaesthesia and haematology parameters were determined the same day by laser flow cytometry, optical fluorescence and Laminar Flow Impedance™ using the ProCyte Dx hematology analyser (IDEXX, Eau Claire, USA). Differential leukocyte counts were performed to quantify specific immune cell types. Data are reported as total number of cells (K/μL), mean±S.E.M., as well as the statistical significance versus the vehicle control group using unpaired t-tests.

[3] = target: T2, human CXCR4 (hCXCR4) receptor (Homo sapiens, UniProt P61073); assay: BRET assay of antagonist activity on the CXCR4-CXCL12 signaling pathway (Gαi2 recruitment) in HEK-293 T cells; format: cell-based; conditions: HEK-293 T cells with hCXCR4, Gαi2 and BRET biosensors; 10 min with compound, then EC80 CXCL12
T2 construct: expressed in transfected cells; host or cells: HEK-293 T cells, transient co-transfection with polyethylenimine
Procedure: Examples of the present invention were tested for their antagonist activity on human CXCR4 (hCXCR4) receptor transiently over-expressed in HEK-293 T cells. Compounds exert antagonist activity if they decrease the action of CXCL12 on the receptor.
The specific effector (luciferase tagged: BRET donor) recruited at the membrane will be in close proximity to a plasma membrane anchor (GFP tagged: BRET acceptor) to induce a BRET signal (Hamdan et a1, 2006, Chapter 5, Current Protocols in Neuroscience).
HEK-293 T cells are maintained in Dulbecco's Modified Eagle's Medium supplemented with 10% Foetal Calf Serum, 1% Penicillin/Streptomycin at 37° C./5% CO2. Cells are co-transfected using polyethylenimine (25 kDa linear) with several DNA plasmids encoding: hCXCR4; Gai2; an intracellular effector fused to luciferase (BRET donor); a plasma membrane effector fused to GFP (BRET acceptor). After transfection, cells are cultured for 48 h at 37° C./5% CO2. On the day of the assay, cells are detached using trypsin 0.05%, resuspended in assay buffer (1.8 mM CaCl2, 1 mM MgCl2, 2.7 mM KCl, 137 mM NaCl, 0.4 mM NaH2PO4, 5.5 mM D-Glucose, 11.9 mM NaHCO3, 25 mM Hepes) and seeded in 384 well plate at a density of 20,000 cells per well. Then, plates are equilibrated 3.5 h at 37° C. before adding compounds. Compounds and luciferase substrate are added to the cells using an automated device (Freedom Evo®, Tecan) and BRET readings are collected on EnVision (PerkinElmer) with specific filters (410 nm BW 80 nm, 515 nm BW 30 nm).
Cells are first incubated for 10 minutes with the compound alone. Then, cells are stimulated by an EC80 CXCL12 concentration for additional 10 minutes and luminescence is recorded. EC80 CXCL12 concentration is the concentration giving 80% of the maximal CXCL12 response. Antagonist activity is evaluated in comparison to basal signals evoked by EC80 CXCL12 alone.
For IC50 determination, a dose-response test is performed using 20 concentrations (ranging over 6 logs) of each compound. Dose-response curves are fitted using the sigmoidal dose-response (variable slope) analysis in GraphPad Prism software (GraphPad Software) and IC50 of antagonist activity is calculated. Dose-response experiments are performed in duplicate, in two independent experiments.
HEK-293 T cells were transfected to allow measuring the recruitment of Gai2 proteins involved in intracellular signaling by human CXCR4 receptor (hCXCR4) via the BRET technology. Cells were then incubated with various concentrations of examples of the invention before stimulation with an EC80 concentration of CXCL12.

[4] = system: peripheral blood mononuclear cells (PBMCs) from healthy donors; assay: IFN production by R848-activated PBMCs, quantified with twINNE luciferase reporter cell line; format: cell-based, human; conditions: Homo sapiens, PBMC; read-out: IC50 of anti-inflammatory activity (IFN production by activated PBMCs)
How it was run: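 Functional IFN was quantified by luciferase output from the twINNE ISRE-reporter line after 24 h on conditioned supernatants. Those supernatants came from human PBMCs (4.10^6/mL) pre-treated with compound and then stimulated for 24 h with 5 μg/mL resiquimod. IC50s were fitted by nonlinear variable-slope regression.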

[5] = system: monocytes from healthy donors; assay: Intracellular TNFα, IL-6 and IL-1β production by R848-activated monocytes after CXCR4 siRNA knockdown or AMD3100 block (flow cytometry); format: cell-based, human
Excerpt: The blood from healthy donors was obtained from “Etablissement Français du Sang” (convention #19/EFS/029), Paris, France.
Peripheral blood mononuclear cells (PBMCs) were isolated by density centrifugation from peripheral blood leukocyte separation medium, lymphoprep (Stemcell Technologies, Vancouver, Canada).
Monocytes used for in vitro experiments as described in part C/D were purified by positive selection with human CD14 microbeads (Miltenyi Biotec, Bergisch Gladbach, Germany) from PBMCs.
Monocytes were cultured in RPMI 1640 (Sigma-Aldrich, St Louis, USA) containing 10% heat-inactivated Fetal Bovine Serum (FBS, Sigma-Aldrich, St Louis, USA) at 37° C./5% CO2.
PBMCs and monocytes used herein were prepared as described in part A ‘Immune cells preparation’, above. Monocytes as prepared in part C ‘In vitro knockdown using siRNA or CXCR4 antagonist treatment’ and D ‘Quantification of TNFα, IL-6 and IL1β productions’ were incubated with one exemplary compound of formula (I), i.e. […] Monocytes were analysed by flow cytometry. For intracellular TNFα, IL-6 and IL-1p labelling as described in Part D ‘Quantification of TNFα, IL-6 and IL-1β productions’, Brefeldin A (BFA) was added to the cells 30 minutes after R848 stimulation.
Isolated monocytes were seeded at 10^5 cells/100 μL in 96-well plates and incubated at 37° C.
Monocytes were then treated with small interfering RNA (siRNA) which target the chemokine receptor CXCR4 mRNA (siCXCR4) (Smart Pool, Dharmacon, Lafayette, USA), or with control siRNAs (siCTL) and coupled to a transfection agent DOTAP (Roche Applied Science, Penzberg, Germany). The mix was gently mixed and incubated at room temperature for 15 minutes. After incubation, the mix was added to cells in culture at a final concentration of 160 nM. Finally, cells were incubated at 37° C. for 24 hours.
Alternatively, monocytes were treated after seeding with the CXCR4 antagonist AMD3100 (Sigma-Aldrich, USA) at 20 μM for 1 hour.
Monocytes as treated in part C, were washed in phosphate-buffered saline (PBS) and incubated with a viability marker (Zombie Aqua, Biolegend, San Diego, USA) for 30 minutes at room temperature. After washing, cells were resuspended in PBS containing 2% FBS and 2 mM ethylenediaminetetraacetic acid (EDTA) and labelled with anti-CD14 antibody (clone REA599, Miltenyi Biotech, Bergisch Gladbach, Germany), used at 1:100. For intracellular labelling of TNFα, IL-6 and IL-1β, the “Inside Stain” kit (Miltenyi Biotec, Bergisch Gladbach, Germany) was used according to the manufacturer's protocol. Cells were fixed for 20 minutes at room temperature with 250 μL of Inside Fix solution and then labelled in 100 μL of Inside Perm solution containing anti-TNFα antibody (clone cA2), anti-IL-6 antibody (clone REA1037) or anti-IL-1p antibody (clone REA1172) at 1/500 for 30 minutes at room temperature (all from Miltenyi Biotec, Bergisch Gladbach, Germany). Data acquisition was performed on the Canto II flow cytometer using Diva software (BD Biosciences, San Jose, USA). FlowJo software was used to analyse the data.

[6] = AMD3100 20 μM, Example 77 10, 50 and 500 nM, R848

T2 sequence (P61073 whole entry): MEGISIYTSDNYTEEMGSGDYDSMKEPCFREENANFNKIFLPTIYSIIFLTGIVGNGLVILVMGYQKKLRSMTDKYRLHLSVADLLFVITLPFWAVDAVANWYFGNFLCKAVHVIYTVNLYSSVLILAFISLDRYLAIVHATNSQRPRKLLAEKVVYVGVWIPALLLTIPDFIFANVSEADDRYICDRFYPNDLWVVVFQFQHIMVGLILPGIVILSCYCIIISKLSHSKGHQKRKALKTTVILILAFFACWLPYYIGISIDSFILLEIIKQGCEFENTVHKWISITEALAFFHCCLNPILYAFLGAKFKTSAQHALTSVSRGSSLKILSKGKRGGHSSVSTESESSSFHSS
T1 sequence (P61073 whole entry): as above

c1cc(CN2CCCNCCNCCCNCC2)ccc1CN1CCCNCCNCCCNCC1 [AMD3100, plerixafor, reference compound]
irrelevant GPCR activation state, Amax shift in fluorescence [1]: Neither benchmark ligands SDF1α and AMD3100, nor Example 60 showed any effect
CXCR4 structural activation/inactivation, Amax shift in fluorescence ([2]; ligand 100 μM added after Example 60 150 μM): did not reverse Example 60 effect
CXCR4 structural activation/inactivation, Amax shift in fluorescence ([2]; ligand 100 μM added after SDF1α 15 μM): reversed SDF1α effect with a blue shift
numbers of white blood cells in the blood vs vehicle control (Male C57BL/6 Rj mice): significantly higher

c1ccc(CC2CN=C(SCCCc3ccncc3)N2)cc1 (stereo not drawn) [Example 55, 4-(3-((5-benzyl-4,5-dihydro-1H-imidazol-2-yl)thio)propyl)pyridine dihydrochloride]
IC50 [3]: ≥ 15 µM
IC50 [4]: 10 to 32 µM

C1=C(CSC2=NCc3ccccc3N2)N2CC(Cc3ccccc3)N=C2S1 (stereo not drawn) [Example 65, 6-benzyl-3-(((3,4-dihydroquinazolin-2-yl)thio)methyl)-5,6-dihydroimidazo[2,1-b]thiazole dihydrochloride]
IC50 [3]: ≥ 15 µM
IC50 [4]: ≤ 10 µM

c1ccc2c(c1)CN=C(SCCN1CCCC1)N2 [Example 77, 2-((2-(pyrrolidin-1-yl)ethyl)thio)-1,4-dihydroquinazoline dihydrochloride]
IC50 [3]: ≥ 15 µM
IC50 [4]: ≤ 10 µM
IL-1β production by activated monocytes in the presence of Example 77 with CXCR4 blocked by AMD3100 [5, 6]: restored
TNFα production by activated monocytes in the presence of Example 77 with CXCR4 blocked by AMD3100 [5, 6]: restored
IL-1β production by activated monocytes in the presence of Example 77 after CXCR4 siRNA ([5]; siCXCR4 vs siCTL, Example 77 50 nM, R848 1 μg/mL, % IL-1β positive cells): restored
IL-6 production by activated monocytes in the presence of Example 77 after CXCR4 siRNA ([5]; siCXCR4 vs siCTL, Example 77 50 nM, R848 1 μg/mL, % IL-6 positive cells): restored
TNFα production by activated monocytes in the presence of Example 77 after CXCR4 siRNA ([5]; siCXCR4 vs siCTL, Example 77 50 nM, R848 1 μg/mL, % TNFα positive cells): restored
